We go through one compound from patent US7851487B2, “Use of tetrahydropyridines in the treatment of central nervous system disorders” (The Research Foundation of State University of New York, priority 2006, dated 2010).

This test concerns the target T1, Dopamine D4.4 (Homo sapiens, UniProt P21917).
T1 construct: host or cells: CHO-K1 cells
T1 sequence (P21917 1-419): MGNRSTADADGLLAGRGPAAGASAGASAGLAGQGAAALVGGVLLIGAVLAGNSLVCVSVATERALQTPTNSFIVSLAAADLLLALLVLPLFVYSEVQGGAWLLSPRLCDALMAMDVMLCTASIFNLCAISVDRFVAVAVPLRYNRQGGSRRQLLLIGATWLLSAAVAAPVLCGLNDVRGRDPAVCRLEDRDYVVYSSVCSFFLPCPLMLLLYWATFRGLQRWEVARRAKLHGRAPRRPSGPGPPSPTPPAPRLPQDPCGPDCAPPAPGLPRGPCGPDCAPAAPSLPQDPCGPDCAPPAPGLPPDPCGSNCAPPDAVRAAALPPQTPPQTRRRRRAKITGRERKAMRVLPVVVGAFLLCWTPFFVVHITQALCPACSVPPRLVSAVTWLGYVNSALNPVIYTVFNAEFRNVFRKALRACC
Put plainly: Radioligand binding, Dopamine D4.4 ([3H]Spiperone). The protocol: The assays utilized human neuroreceptors and were performed under the experimental parameters set forth in Table 2 using standard techniques.
For Table 3, IC50 values were determined by non-linear, least squares regression analysis using Data Analysis Toolbox™ (MDL Information Systems, San Leandro, Calif., USA). Inhibition constants (KI) were calculated using the equation of Cheng and Prusoff (Cheng, Y., et al. Biochem. Pharmacol. 22:3099-3108, 1973) using the observed IC50 of the tested compound, the concentration of radioligand employed in the assay, and the values for the KD of the ligand. The Hill coefficient (nH), defining the slope of the competitive binding curve, was calculated using the Data Analysis Toolbox™. Biochemical assay results are presented as the percent inhibition of specific binding or activity unless indicated otherwise. The experiments summarized in Table 3 utilized human dopamine D1, D2 s, D21, D3, D4.2, D4.4, serotonin 5HT1A, 5HT2A, 5HT2C, 5HT6, 5HT7, dopamine transporter (DAT), serotonin transporter (SERT) and the norepinephrine transporter (NET), as indicated in Table 3.

As for `COC(=O)[C@@H](c1ccc(-c2ccccc2)cc1)[C@H]1C=CCCN1` [Compound 2], the concentration for half-maximal inhibition (IC50) – broadly, the concentration needed to halve the response being measured – is 66.7 µM; the Ki (commonly the dissociation constant of the complex between target and ligand, obtained from inhibition or displacement) was 18.5 µM. The same compound had a nH (Dopamine D4.4, Hill coefficient) of 1.01. Moreover, the “Percentage Inhibition” value (Dopamine D4.4, concentration 100 (unit not given)) turned out to be 62%.
